Each structure is given as a SMILES string. Structures can show the parent of a compound that is named as a salt.

The subject of one assay is rat. The assay is described as follows: Formalin test in rats (phase 2, chronic pain component). The conditions noted are these: iv, administered 30 min before formalin, observed 21 to 27 min after formalin injection. Type of assay: in vivo. The procedure:
2a. Formalin Test in Rats The formalin test (Dubuisson, D. and Dennis, S. G., 1977, Pain, 4, 161-174) represents a model for acute and chronic pain. A biphasic nociceptive reaction, which is recorded by observation of three clearly differentiable behavioural patterns, is induced by a single formalin injection into the dorsal side of a rear paw in freely mobile test animals. The reaction has two phases: Phase 1=Immediate reaction (duration up to 10 min; paw shaking, licking), Phase 2=Late reaction (after a rest phase; likewise, paw shaking, licking; duration up to 60 min). The 1st phase reflects a direct stimulation of the peripheral nocisensors with high spinal nociceptive input or glutamate release (acute pain phase); the 2nd phase reflects a spinal and peripheral hypersensitisation (chronic pain phase). In the investigations presented here, the chronic pain component (phase 2) was evaluated. Formalin with a volume of 50 μl and a concentration of 5% is administered subcutaneously into the dorsal side of the right rear paw of each animal. The substances to be tested are administered 30 min before the formalin injection orally (p.o), intravenously (i.v.) or intraperitoneally (i.p.). The specific changes in behavior such as lifting and shaking the paw, shifts in weight of the animal as well as biting and licking reactions are observed and registered in the period of observation from 21 to 27 min after formalin injection. The various forms of behavior are summarized in the so-called pain rate (PR), which, relative to the sub-intervals of 3 min, represents the calculation of an average nociception reaction. […] The group size is 10 animals (n=10). 2b. Formalin Test in Mice
`CC(C)(C)Nc1c(-c2ccc(C#Cc3ccccn3)s2)nc2sccn12` [Example 2, N-tert-butyl-6-(5-(pyridine-2-ylethynyl)thiophene-2-yl)imidazo[2,1-b]thiazole-5-amine]: the ED50 (as a rule, the midpoint of the dose-response relation) was found to be 0.47 mg/kg.

The same assay, now with this note: p.o., 10 mg/kg, administered 30 min before formalin.
For the molecule `CC(C)(C)Nc1c(-c2ccc(C#Cc3ccccn3)s2)nc2sccn12` [Example 2, N-tert-butyl-6-(5-(pyridine-2-ylethynyl)thiophene-2-yl)imidazo[2,1-b]thiazole-5-amine], the “Formalin test (rat) p.o. Reduction in the nociceptive behavior over controls at 10 mg/kg” value stood at 66%.

The target in a further assay is T1, mGluR5 receptor (pig) (Sus scrofa, UniProt I3LUI7).
T1 construct: 450 μg protein from brain homogenate is incubated with 5 nM; from tissue; host or cells: pig brain halves without medulla, cerebellum and pons; homogenate, differential centrifugation
T1 sequence (I3LUI7 19-1212): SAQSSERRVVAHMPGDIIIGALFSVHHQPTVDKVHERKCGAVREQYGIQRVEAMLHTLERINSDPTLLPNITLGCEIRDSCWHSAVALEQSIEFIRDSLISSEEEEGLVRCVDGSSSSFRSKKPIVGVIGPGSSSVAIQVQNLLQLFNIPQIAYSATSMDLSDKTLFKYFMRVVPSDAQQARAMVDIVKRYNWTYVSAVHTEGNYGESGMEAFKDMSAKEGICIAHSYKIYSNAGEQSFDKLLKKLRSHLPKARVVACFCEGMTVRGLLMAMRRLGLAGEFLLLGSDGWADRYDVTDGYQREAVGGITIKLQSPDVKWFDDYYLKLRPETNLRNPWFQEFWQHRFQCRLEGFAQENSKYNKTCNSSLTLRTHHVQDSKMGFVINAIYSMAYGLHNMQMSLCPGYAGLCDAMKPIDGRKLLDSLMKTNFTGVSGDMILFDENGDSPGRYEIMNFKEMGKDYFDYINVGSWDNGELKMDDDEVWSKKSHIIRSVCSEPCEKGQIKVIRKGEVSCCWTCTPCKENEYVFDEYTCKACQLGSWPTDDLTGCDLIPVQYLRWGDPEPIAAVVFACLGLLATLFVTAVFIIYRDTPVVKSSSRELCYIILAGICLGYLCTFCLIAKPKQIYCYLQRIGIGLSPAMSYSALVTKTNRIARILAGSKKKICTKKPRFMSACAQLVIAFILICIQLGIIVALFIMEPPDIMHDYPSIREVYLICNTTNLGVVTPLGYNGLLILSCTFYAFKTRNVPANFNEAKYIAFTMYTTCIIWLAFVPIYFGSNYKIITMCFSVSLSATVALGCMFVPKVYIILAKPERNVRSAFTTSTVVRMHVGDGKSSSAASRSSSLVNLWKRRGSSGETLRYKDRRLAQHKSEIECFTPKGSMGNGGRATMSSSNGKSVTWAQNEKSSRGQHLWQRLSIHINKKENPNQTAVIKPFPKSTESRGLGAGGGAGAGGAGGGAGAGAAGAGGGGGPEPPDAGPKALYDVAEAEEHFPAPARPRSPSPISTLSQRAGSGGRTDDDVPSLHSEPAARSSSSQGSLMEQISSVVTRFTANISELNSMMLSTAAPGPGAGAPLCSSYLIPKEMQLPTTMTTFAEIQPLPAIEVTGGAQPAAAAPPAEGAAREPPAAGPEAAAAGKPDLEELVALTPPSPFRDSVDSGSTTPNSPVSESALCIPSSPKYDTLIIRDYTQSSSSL
The assay is described as follows: [3H]-MPEP binding assay, pig brain homogenate. As to conditions: displacement of 5 nM [3H]-MPEP, 450 μg protein from pig brain homogenate, 60 min, room temperature; read-out: IC50 [3H]-MPEP bond mGluR5 receptor (pig). The procedure: Substituted imidazo[2,1-b]thiazole compounds corresponding to the foregoing formula I are likewise particularly preferred, which, after 60 minutes of incubation in 450 μg protein from pig brain homogenate at a temperature between 20° C. and 25° C. in a concentration of less than 2500 nM, preferably less than 1000 nM, particularly preferably less than 700 nM, very particularly preferably less than 100 nM, even more preferably less than 70 nM, bring about a 50-percent displacement of [^3H]-2-methyl-6-(3-methoxyphenyl)-ethynylpyridine which is present in a concentration of 5 nM. The determination of the displacement of [^3H]-2-methyl-6-(3-methoxyphenyl)-ethynyl-pyridine is performed as described hereinafter in the section Pharmacological Methods, I. Method for determining the inhibition of [^3H]-MPEP-bonding in the mGluR5 receptor bonding assay.
1. Method for Determining the Affinity to the mGluR5 Receptor
Pig brain homogenate is produced by homogenization (Polytron PT 3000, Kinematica AG, 10,000 rpm for 90 seconds) of pig brain halves without medulla, cerebellum and pons in buffer pH 8.0 (30 mM Hepes, Sigma, order no. H3375+1 tablet complete to 100 ml, Roche Diagnostics, order no. 1836145) in ratio 1:20 (brain weight/volume) and differential centrifugation at 900×g and 40,000×g. In each case, 450 μg protein from brain homogenate is incubated with 5 nM ^3-[H]-MPEP (Tocris, order no. R1212) (MPEP=2-methyl-6-(3-methoxyphenyl)-ethynylpyridine) in 250 μl incubation batches in 96 well microtitration plates and the compounds to be tested (10 μM in the test) in buffer (as above) at room temperature for 60 min.
Thereafter, the batches are filtered with the help of a Brandel Cell Harvester (Brandel, TYP Robotic 9600) on unifilter plates with glass fibre filter mats (Perkin Elmer, order no. 6005177) and subsequently washed with buffer (as above) 3 times with in each case 250 μl per sample. The filter plates are subsequently dried for 60 min at 55° C. 30 μL Ultima Gold™ scintillator is subsequently added per well (Packard BioScience, order no. 6013159) and the samples are measured after 3 hours on the β-counter (Mikrobeta, Perkin Elmer). The unspecific bond is determined by addition of 10 μM MPEP (Tocris, order no. 1212).
For `CC(C)(C)CC(C)(C)Nc1c(-c2ccc(C#Cc3ccccc3)s2)nc2sccn12` [Example 1, 6-(5-(phenylethynyl)thiophene-2-yl)-N-(2,4,4-trimethylpentane-2-yl)imidazo[2,1-b]thiazole-5-amine], the IC50 (usually the concentration that inhibits the measured activity by half) was 2180 nM. On the same count and under the same terms, the value for `CC(C)(C)Nc1c(-c2ccc(C#Cc3cccc(O)c3)s2)nc2sccn12` [Example 20, 3-((5-(5-(tert-butylamino)imidazo[2,1-b]thiazole-6-yl)thiophene-2-yl)ethynyl)phenol] was 170 nM; that for `Cc1cn2c(NC(C)(C)C)c(-c3ccc(C#Cc4ccccn4)cc3)nc2s1` [Example 11, N-tert-butyl-2-methyl-6-(4-(pyridine-2-ylethynyl)phenyl)imidazo[2,1-b]thiazole-5-amine] was 20 nM; that for `CC(C)(C)Nc1c(-c2ccc(C#Cc3ccccn3)s2)nc2sccn12` [Example 2, N-tert-butyl-6-(5-(pyridine-2-ylethynyl)thiophene-2-yl)imidazo[2,1-b]thiazole-5-amine] was 6.3 nM. On the same count and under the same terms, under `CC(C)(C)CC(C)(C)Nc1c(-c2ccc(C#Cc3ccccn3)s2)nc2sccn12` [Example 10] stands 100 nM; under `Cc1csc2nc(-c3ccc(C#Cc4ccccn4)s3)c(NC(C)(C)C)n12` [Example 3, N-tert-butyl-3-methyl-6-(5-(pyridine-2-ylethynyl)thiophene-2-yl)imidazo[2,1-b]thiazole-5-amine hydrochloride], 12 nM. The same measure, in the same setting: under `Cc1cccnc1C#Cc1ccc(-c2nc3sccn3c2NC(C)(C)C)s1` [Example 23, N-tert-butyl-6-(5-((3-methylpyridine-2-yl)ethynyl)thiophene-2-yl)imidazo[2,1-b]thiazole-5-amine] stands 230 nM.

On to `COC(=O)c1cn2c(NC(C)(C)C)c(-c3ccc(C#Cc4ccccn4)s3)nc2s1` [Example 8, 5-(tert-butylamino)-6-(5-(pyridine-2-ylethinyl)thiophene-2-yl)-imidazo[2,1-b]thiazole-2-carbonic acid methylester hydrochloride], for which the IC50 is 160 nM. In the case of `CC(C)(C)Nc1c(-c2ccc(C#Cc3cccs3)s2)nc2sccn12` [Example 18, N-tert-butyl-6-(5-(thiophene-2-ylethynyl)thiophene-2-yl)imidazo[2,1-b]thiazole-5-amine], the IC50 was 45 nM. Still for that read-out and setting: under `CC(C)(C)Nc1c(-c2ccc(C#Cc3ccccn3)s2)nc2sc(Cl)cn12` [Example 6, N-tert-butyl-2-chloro-6-(5-(pyridine-2-ylethinyl)thiophene-2-yl)-imidazo[2,1-b]thiazole-5-amine hydrochloride] stands 9.9 nM; under `Cc1sc2nc(-c3ccc(C#Cc4ccccn4)s3)c(NC(C)(C)C)n2c1C` [Example 5, N-tert-butyl-2,3-dimethyl-6-(5-(pyridine-2-ylethinyl)thiophene-2-yl)-imidazo[2,1-b]thiazole-5-amine hydrochloride], 17 nM.

Turning to `CC(C)(C)Nc1c(-c2ccc(C#Cc3nccs3)s2)nc2sccn12` [Example 19, N-tert-butyl-6-(5-(thiazole-2-ylethynyl)thiophene-2-yl)imidazo[2,1-b]thiazole-5-amine], the IC50 came to 24 nM. For `CC(C)(C)Nc1c(-c2ccc(C#Cc3ccnc(F)c3)s2)nc2sccn12` [Example 17, N-tert-butyl-6-(5-((2-fluoropyridine-4-yl)ethynyl)thiophene-2-yl)imidazo[2,1-b]thiazole-5-amine], the IC50 was found to be 18 nM. On to `Nc1c(-c2ccc(C#Cc3ccccn3)s2)nc2sccn12` [Example 14, 6-(5-(pyridine-2-ylethynyl)thiophene-2-yl)imidazo[2,1-b]thiazole-5-amine], for which the IC50 turned out to be 140 nM. Still for that read-out and setting: the value for `CC(C)(C)Nc1c(-c2ccc(C#Cc3ncccn3)s2)nc2sccn12` [Example 15, N-tert-butyl-6-(5-(pyrimidine-2-ylethynyl)thiophene-2-yl)imidazo[2,1-b]thiazole-5-amine] was 10 nM; that for `CC(C)(C)Nc1c(-c2ccc(C#Cc3ncccc3F)s2)nc2sccn12` [Example 16, N-tert-butyl-6-(5-((3-fluoropyridine-2-yl)ethynyl)thiophene-2-yl)imidazo[2,1-b]thiazole-5-amine] was 13 nM. The same measure, in the same setting: under `CC(C)(C)Nc1c(-c2ccc(C#Cc3ccccn3)o2)nc2sccn12` [Example 12, N-tert-butyl-6-(5-(pyridine-2-ylethynyl)furan-2-yl)imidazo[2,1-b]thiazole-5-amine] stands 87 nM. On the same count and under the same terms, under `CC(C)(C)Nc1c(-c2ccc(C#Cc3cccc(C#N)c3)s2)nc2sccn12` [Example 21, 3-((5-(5-(tert-butylamino)imidazo[2,1-b]thiazole-6-yl)thiophene-2-yl)ethynyl)benzonitrile] stands 26 nM.

Still in this assay, the particulars now being: test compound 10 μM; inhibition of [3H]-MPEP binding, pig brain homogenate.
As to `Cc1csc2nc(-c3ccc(C#Cc4ccccc4)s3)c(NC(C)(C)C)n12` [Example 13, N-tert-butyl-3-methyl-6-(5-(phenylethynyl)thiophene-2-yl)imidazo[2,1-b]thiazole-5-amine], the inhibition – broadly, the relative decrease from the control value, in per cent – at 10 µM was 48%. On to `CCNc1c(-c2ccc(C#Cc3ccccc3)nc2)nc2sccn12` [Example 22, N-ethyl-6-(6-(phenylethynyl)pyridine-3-yl)imidazo[2,1-b]thiazole-5-amine], for which the inhibition at 10 µM is 82%.

Source of the values: patent US7893069B2, “Substituted imidazo[2,1-b]thiazole compounds and uses thereof” (Gruenenthal GmbH, priority 2006, dated 2011).
